Measured values taken from PMC9914026, “Identification of a Novel ACE Inhibitory Hexapeptide from Camellia Seed Cake and Evaluation of Its Stability” (Foods, 2023).
Peptide text beside a SMILES is read from it.

Experiments:
[1] = molecular target: T1, Angiotensin I-converting enzyme (ACE) from rabbit lungs (Oryctolagus cuniculus, UniProt P12822); assay: ACE inhibitory activity (HHL substrate, HPLC of hippuric acid); assay type: biochemical
T1 construct: Angiotensin I-converting enzyme (ACE) from rabbit lungs (0.1 U); purchased Sigma-Aldrich (St. Louis, MO, USA); host or cells: rabbit lung tissue
T1 sequence (P12822 34-1310): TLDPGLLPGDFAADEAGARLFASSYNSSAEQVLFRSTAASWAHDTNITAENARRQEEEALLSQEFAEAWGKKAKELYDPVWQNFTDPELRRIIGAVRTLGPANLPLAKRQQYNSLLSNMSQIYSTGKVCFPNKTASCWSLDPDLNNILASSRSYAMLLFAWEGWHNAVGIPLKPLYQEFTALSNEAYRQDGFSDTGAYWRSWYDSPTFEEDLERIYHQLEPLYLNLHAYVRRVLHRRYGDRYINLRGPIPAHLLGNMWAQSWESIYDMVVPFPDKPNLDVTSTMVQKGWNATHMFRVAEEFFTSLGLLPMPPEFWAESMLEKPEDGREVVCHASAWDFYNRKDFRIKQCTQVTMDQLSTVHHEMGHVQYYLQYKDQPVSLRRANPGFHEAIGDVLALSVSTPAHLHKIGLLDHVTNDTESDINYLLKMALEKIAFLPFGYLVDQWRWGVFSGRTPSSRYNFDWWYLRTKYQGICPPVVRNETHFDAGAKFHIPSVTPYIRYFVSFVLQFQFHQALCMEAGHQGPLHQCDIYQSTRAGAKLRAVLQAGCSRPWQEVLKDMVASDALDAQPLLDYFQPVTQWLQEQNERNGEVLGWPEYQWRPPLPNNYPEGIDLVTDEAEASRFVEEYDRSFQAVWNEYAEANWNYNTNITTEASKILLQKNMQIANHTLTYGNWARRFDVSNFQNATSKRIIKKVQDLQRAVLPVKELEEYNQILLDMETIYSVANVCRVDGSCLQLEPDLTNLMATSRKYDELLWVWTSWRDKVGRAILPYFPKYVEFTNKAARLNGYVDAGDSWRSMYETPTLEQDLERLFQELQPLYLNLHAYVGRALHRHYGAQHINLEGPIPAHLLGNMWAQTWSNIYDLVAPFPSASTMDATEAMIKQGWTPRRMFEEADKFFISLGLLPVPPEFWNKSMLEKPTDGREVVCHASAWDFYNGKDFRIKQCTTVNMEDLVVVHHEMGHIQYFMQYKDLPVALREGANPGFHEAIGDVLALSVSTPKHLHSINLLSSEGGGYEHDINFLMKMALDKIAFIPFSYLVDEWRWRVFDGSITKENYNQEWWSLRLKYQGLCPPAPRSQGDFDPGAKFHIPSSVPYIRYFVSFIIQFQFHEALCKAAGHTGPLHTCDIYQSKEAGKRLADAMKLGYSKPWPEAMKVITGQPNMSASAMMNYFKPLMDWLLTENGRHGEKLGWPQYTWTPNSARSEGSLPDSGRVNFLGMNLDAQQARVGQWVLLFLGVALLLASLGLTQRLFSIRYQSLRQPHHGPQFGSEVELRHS
From the text: Camellia seeds were purchased from Quzhou City, Zhejiang Province. Angiotensin I-converting enzyme (ACE) from rabbit lungs (0.1 U) (Table A1), ACE substrate hippuryl-histidyl-leucine (HHL) and hippuric acid (HA) standards were purchased from Sigma-Aldrich (St. Louis, MO, USA). Neutral protease (50,000 U/g), alkaline protease (200,000 U/g), papain (800,000 U/g), trypsin (250,000 U/g), and Sephadex G-25 were purchased from Beijing Solarbio Science & Technology Co., Ltd. (Beijing, China). All other chemicals used were of analytical grade.
The ACE inhibition rate was determined using High-Performance Liquid Chromatography (HPLC). In summary, 60 μL of HHL (2.5 mM) and 20 μL of samples were mixed and incubated at 37 °C for 5 min before 40 μL of ACE (0.05 U/mL) was added. The mixture was incubated at 37 °C for 1 h. Finally, the reaction was terminated by adding 120 μL of HCl solution (1 mol/L). The content of HA in the reaction system was detected by a PITC pre-column derivatization HPLC (Shimadzu LC-20AT) with a column C18 Hypersil ODS2 (4.6 mm×250 mm, 5 μm) at 228 nm. Isocratic elution was processed with the acetonitrile-water (volume ratio 1:3, each containing 0.1% TFA) solution at a constant flow rate of 1 mL/min. […]

[2] = molecular target: T1, Angiotensin I-converting enzyme (ACE) from rabbit lungs; assay: Stability after in vitro treatment with digestive enzymes (pepsin, trypsin); assay type: in vitro ADME; conditions: 0.4 mg/mL, 2 h, read-out ACE inhibition rate, n = 3
Procedure: The ACE inhibition rate was determined using High-Performance Liquid Chromatography (HPLC). In summary, 60 μL of HHL (2.5 mM) and 20 μL of samples were mixed and incubated at 37 °C for 5 min before 40 μL of ACE (0.05 U/mL) was added. The mixture was incubated at 37 °C for 1 h. Finally, the reaction was terminated by adding 120 μL of HCl solution (1 mol/L). The content of HA in the reaction system was detected by a PITC pre-column derivatization HPLC (Shimadzu LC-20AT) with a column C18 Hypersil ODS2 (4.6 mm×250 mm, 5 μm) at 228 nm. Isocratic elution was processed with the acetonitrile-water (volume ratio 1:3, each containing 0.1% TFA) solution at a constant flow rate of 1 mL/min. The ACE inhibition rate (%) was calculated based on the following formula:ACE inhibition rate (%) = [(A0 − A1) / A0] × 100%(4) where A0 and A1 equal the HA peak areas of the blank control and sample, respectively.
The stability of VVVPQN after in vitro treatment with digestive enzymes was carried out by the method of Chai with some modifications. Briefly, in a water bath at 37 °C, VVVPQN (0.4 mg/mL) was first digested with 2% (w/w) pepsin at pH 2.0 for 2 h. The pH was then adjusted to 7.0 before trypsin was added at a 1:50 enzyme to substrate ratio. […] The stability of VVVPQN was evaluated by comparing the ACE inhibition rate before and after the digestion.

## CC(C)[C@H](N)C(=O)N[C@H](C(=O)N[C@H](C(=O)N1CCC[C@H]1C(=O)N[C@@H](CCC(N)=O)C(=O)N[C@@H](CC(N)=O)C(=O)O)C(C)C)C(C)C [VVVPQN, Val-Val-Val-Pro-Gln-Asn] (H-VVVPQN-OH)
[1]; from regression equation y = 23.595 ln(x) + 98.175
  IC50: 199 µM
[1]; synthetic peptide 0.5 mg/mL, HHL 2.5 mM, ACE 0.05 U/mL, 37 °C 1 h, HPLC 228 nm, mean, n = 3
  ACE inhibitory activity: 80.46%
[2]; 2% (w/w) pepsin, pH 2.0, 37 °C
  Change of ACE inhibitory activity after simulated gastric digestion: decreased significantly
[2]; after pepsin: trypsin 1:50 enzyme to substrate, pH 7.0, 37 °C
  Change of ACE inhibitory activity after further simulated intestinal digestion: did not change significantly
